Key:
SUP-B15 = assay: ATP-based luminescence cell viability (CellTiter Glo), drug response score, SUP-B15; parameters: scale not given here
Source text: As part of a screen, a drug could be screened at different concentrations ranging from a lowest concentration to a highest concentration. In such a scenario, multiple data structures may be obtained by the screening platform 210. […] With these multiple data structures, the analysis module 218 can generate a dose-response curve that describes the magnitude of the response of the biological target, as a function of exposure to different concentrations of the drug. Further, the analysis module 218 can calculate a metric that is indicative of the response of the biological target. In the event that the biological target is one of multiple biological targets that are introduced to the pools of drugs, the metric can be used by the screening platform 210 to better understand the relative magnitude of responses. One example of a metric is drug-response score (“DRS”). DRS can be calculated as a continuous function of multiple parameters of the non-linear dose-response curve, including the slope at the half-maximal effective concentration (also called “EC50”) and the top and bottom asymptotes of the dose-response curve. DRS can be calculated as follows: […]
where y is a continuous function of the variable dose x, a is the maximal response (i.e., the top asymptote of the curve), b is the slope of the curve, c is the IC50 (i.e., half-maximal inhibitory concentration), and d is the minimal response (i.e., the bottom asymptote of the curve). Other examples of metrics include those output by sigmoidal and Hill slide functions that, like DRS, incorporate multiple aspects of the dose-response curve into a continuous function.
(§1) Total cell viability was measured for each cancer cell line using an Adenosine TriPhosphate (“ATP”) assay, and more specifically an ATP-based luminescence assay (i.e., CellTiter Glo). Each cancer drug was screened at multiple concentrations ranging from one nanomolar (nM) to ten micromolar (UM) in order to generate a dose-response curve and calculate a drug response score (“DRS”) for each cancer cell line. The DRS was calculated as a continuous function of multiple parameters of the non-linear dose-response curve, including the slope at the half-maximal effective concentration (also called “EC50”) and the top and bottom asymptotes of the dose-response curve. […] After total cell viability was measured and DRS was calculated, the DRS of each cancer cell line in the pool was deconvolved for each cancer drug.
DRS for these anchor cell lines are bolded and italicized. Anchors can be identified based on frequency of the cell lines in pools with high DRS versus low DRS. At a high level, an anchor is predicted to be the cell line with the lowest individual DRS. In order to deconvolute individual cell line DRS values from pool DRS values, the anchor can start with an assumed DRS value of zero. Each pool can then be expressed as a polynomial of variables (cell lines in the pool) and constants (DRS value of the pool). The DRS value of each cell line can then be solved for using the anchor value and overlapping polynomial expressions. When multiple values are calculated for the final target solved from the polynomials, then the anchor has a non-zero value that can be determined based on the difference in the calculated value of the final target.
Each pool represented a co-culture of three cell lines (“Target Compression”).

[1] = system: pooled samples of three cancer cell lines; assay: Cell viability (CellTiter Glo) of compressed pooled samples of three individually cultured cell lines (Sample Compression); type: cell-based
Procedure: as §1
A benefit of the compression methodology is the ability to compress members of a library into pools for co-culture screens or compress individual cell cultures into pooled samples for measurement. For example, leukemia cell lines can interact in co-cultures through their immune receptors, which may result in cell activation, cytokine production, and other effects that may impact drug sensitivity and resistance. […] Instead of creating compressed target cells in pooled co-cultures, compression was instead used to enable individual cultures of each cell line, with pooled measurements to reduce reagents and instrument time. With individual cultures and sample compression, it was possible to accurately deconvolute DRS for each drug on each cell line, as shown in Table IV.

[2] = SUP-B15, Sample compression, 5 Pick 3 pools
[3] = SUP-B15, Target compression, 5 Pick 3 pools
[4] = SUP-B15, Target compression, 6 Pick 3 pools
[5] = SUP-B15, Target compression, 7 Pick 3 pools
[6] = 5 Pick 3, Pool 1 (REH, SUP-B15, CCRF-CFM)
[7] = 5 Pick 3, Pool 2 (SUP-B15, CCRF-HSB2, MOLT-4)
[8] = 5 Pick 3, Pool 3 (SUP-B15, CCRF-CFM, CCRF-HSB2)
[9] = 5 Pick 3, Pool 4 (REH, CCRF-CFM, MOLT-4)
[10] = 5 Pick 3, Pool 5 (REH, CCRF-HSB2, MOLT-4)

| SMILES | DRS from deconvolution (SUP-B15; [2]) | DRS from deconvolution (SUP-B15; [3]) | DRS from deconvolution (SUP-B15; [4]) | DRS from deconvolution (SUP-B15; [5]) | DRS of pool [1, 6] | DRS of pool [1, 7] | DRS of pool [1, 8] | DRS of pool [1, 9] | DRS of pool [1, 10] |
| --- | --- | --- | --- | --- | --- | --- | --- | --- | --- |
| COc1c(OCCCN2CCOCC2)ccc2c1N=C(NC(=O)c1cnc(N)nc1)N1CCN=C21 [Copanlisib] | 1.80 | 1.98 | 3.00 | 1.91 | 10.47 | 6.63 | 8.39 | 13.65 | 10.96 |
| N#Cc1ccnc(N2C(=O)CC[C@H]2C(=O)N(c2cncc(F)c2)[C@H](C(=O)NC2CC(F)(F)C2)c2ccccc2Cl)c1 [Ivosidenib] | 0.09 | 0.00 | 0.00 | 0.00 | 0.52 | 0.55 | 0.82 | 0.51 | 0.74 |
| Cc1[nH]c2ccccc2c1CCNCc1ccc(/C=C/C(=O)NO)cc1 [Panobinostat] | 25.45 | 21.44 | 22.36 | 21.78 | 18.56 | 19.17 | 20.34 | 14.93 | 15.87 |
| CC1(C)CCC(CN2CCN(c3ccc(C(=O)NS(=O)(=O)c4ccc(NCC5CCOCC5)c([N+](=O)[O-])c4)c(Oc4cnc5[nH]ccc5c4)c3)CC2)=C(c2ccc(Cl)cc2)C1 [Venetoclax] | 37.02 | 37.99 | 37.35 | 35.04 | 13.99 | 13.60 | 12.57 | 2.91 | 2.41 |
